Reference: ChEMBL document CHEMBL4842348 (J Med Chem, 2021)
≈ marks a conversion by molar mass, not a printed value.

Experiments:
[1] = Dose normalized AUC in C57BL/6 mouse at 2 mg/kg, po; type: ADME, organism-based; details: in vivo
[2] = Oral bioavailability in C57BL/6 mouse at 2 mg/kg; type: ADME, organism-based; details: in vivo
[3] = Solubility of the compound in pH 7 phosphate buffer; type: physicochemical
[4] = Lipophilicity, logD of the compound at pH 7.3 by HPLC analysis; type: physicochemical; details: buffer
[5] = Cmax in C57BL/6 mouse at 1 mg/kg, iv and 2 mg/kg, po; type: ADME, organism-based; design: dose 2 mg/kg; details: in vivo
[6] = Solubility of the compound in pH 7 phosphate buffer by shake-flask method; type: physicochemical
[7] = Half life in C57BL/6 mouse at 1 mg/kg, iv; type: ADME, organism-based; details: in vivo
[8] = Total clearance in C57BL/6 mouse in whole blood at 1 mg/kg, iv; type: ADME, organism-based
[9] = Terminal half life in DIO NFR-transgenic mouse liver at 100 mg/kg, po once daily for 14 days; type: ADME, organism-based; details: in vivo, time 14 day
[10] = Terminal half life in C57BL/6-transgenic mouse expressing human CETP at 200 mg/kg, po qd treated for 7 days measured for 240 hrs; type: ADME, organism-based; details: in vivo, 168 h, time 7 day
[11] = Terminal half life in DIO NFR-transgenic mouse plasma at 100 mg/kg, po once daily for 14 days; type: ADME, organism-based; details: time 14 day, read-out: beta t1/2 (converted)
[12] = Terminal half life in DIO NFR-transgenic mouse adipose tissue at 100 mg/kg, po once daily for 14 days; type: ADME, organism-based; details: in vivo, time 14 day
[13] = Half life in C57BL/6 mouse at 0.6 mg/kg, iv; type: ADME, organism-based; details: in vivo
[14] = MRT in CD1 mouse at 1 mg/kg, iv and 2 mg/kg, po; type: ADME, organism-based; details: in vivo
[15] = Dose normalized AUC in CD1 mouse at 1 mg/kg, iv and 2 mg/kg, po; type: ADME, organism-based; details: in vivo
[16] = Clearance in CD1 mouse at 1 mg/kg, iv and 2 mg/kg, po; type: ADME, organism-based; details: in vivo
[17] = Volume of distribution at steady state in CD1 mouse at 1 mg/kg, iv and 2 mg/kg, po; type: ADME, organism-based; details: in vivo, read-out: Vdss
[18] = Bioavailability in CD1 mouse at 1 mg/kg, iv and 2 mg/kg, po; type: ADME, organism-based; details: in vivo
[19] = Metabolic stability in liver microsomes (unknown origin); type: ADME, Microsome
[20] = Terminal half life in C57BL/6-transgenic mouse expressing human CETP at 100 mg/kg, po qd treated for 7 days measured for 240 hrs; type: ADME, organism-based; details: C57BL/6-transgenic expressing human CETP, in vivo, time 7 day, read-out: beta t1/2 (converted)
[21] = Terminal half life in DIO NFR-transgenic mouse plasma at 30 mg/kg, po once daily for 14 days; type: ADME, organism-based; details: time 14 day, read-out: beta t1/2 (converted)
[22] = Terminal half life in DIO NFR-transgenic mouse liver at 30 mg/kg, po once daily for 14 days; type: ADME, organism-based; details: time 14 day, read-out: beta t1/2 (converted)
[23] = Terminal half life in DIO NFR-transgenic mouse adipose tissue at 30 mg/kg, po once daily for 14 days; type: ADME, organism-based; details: time 14 day, read-out: beta t1/2 (converted)

**Q.** What does the source list for COc1ccc(C(C)C)cc1-c1ccc(C(F)(F)F)cc1CN1C(=O)O[C@H](c2cc(C(F)(F)F)cc(C(F)(F)F)c2)[C@@H]1C?
**A.** AUC/dose [1]: 0.29 µM·kg·h/mg; bioavailability [2]: 17%; solubility [3]: < 1 µM; logD [4]: > 6.9; Cmax [5]: 160 nM; solubility thermodynamic [6]: < 2 µM; half-life [7]: 4.9 h; clearance [8]: 19 mL/min/kg

**Q.** With COc1cc(F)c(C(C)C)cc1-c1ccc(C(F)(F)F)cc1CN1C(=O)O[C@H](c2cc(C(F)(F)F)cc(C(F)(F)F)c2)[C@@H]1C [ANACETRAPIB] as the compound, how does the AUC/dose [1] read?
**A.** 0.36 µM·kg·h/mg

**Q.** And the solubility [3]?
**A.** < 1 µM

**Q.** What about the logD [4] of the same compound?
**A.** > 6.9

**Q.** What about the “beta t1/2” value [9] of the same compound?
**A.** 49 h

**Q.** And the “beta t1/2” value [10]?
**A.** 121 h

**Q.** And the half-life at […] [11]?
**A.** 27 h

**Q.** And the “beta t1/2” value [12]?
**A.** 150 h

**Q.** And the half-life [13]?
**A.** 3.6 h

**Q.** For COc1cc(F)c(-c2ccc(C(=O)O)cc2C)cc1-c1ccc(C(F)(F)F)cc1[C@@H]1CC[C@H]2[C@@H](c3cc(C(F)(F)F)cc(C(F)(F)F)c3)OC(=O)N12, which MRT [14] is on record?
**A.** 5.8 h

**Q.** What about the AUC/dose [15] of the same compound?
**A.** 3.4 µM·h

**Q.** And the clearance [16]?
**A.** 6.6 mL/min/kg

**Q.** And the logD [4]?
**A.** 5.5

**Q.** And the Vd [17]?
**A.** 2.3 L/kg

**Q.** What about the bioavailability [18] of the same compound?
**A.** 60%

**Q.** Which results are given for COc1ccc(-c2ccc(C(=O)O)cc2C)cc1-c1ccc(C(F)(F)F)cc1CN1C(=O)O[C@H](c2cc(C(F)(F)F)cc(C(F)(F)F)c2)[C@@H]1C?
**A.** AUC/dose [1]: 0.86 µM·kg·h/mg; bioavailability [2]: 65%; solubility [3]: 16 µM (≈ 11.4 µg/mL); Cmax [5]: 430 nM; half-life [7]: 2.5 h; clearance [8]: 18 mL/min/kg

**Q.** Which logD [4] does the source give for COc1ncc(-c2c(C)cc(C(=O)O)cc2C)cc1-c1ccc(C(F)(F)F)cc1[C@@H]1CC[C@H]2[C@@H](c3cc(F)cc(C(F)(F)F)c3)OC(=O)N12 here?
**A.** 4.8

**Q.** What about the Stabilty [19] of the same compound?
**A.** Unstable

**Q.** For COc1ccc(-c2ccc(C(=O)O)cc2C)cc1-c1cc(C(C)C)c(N(C)C)nc1[C@@H]1CC[C@H]2[C@@H](c3cc(C(F)(F)F)cc(C(F)(F)F)c3)OC(=O)N12, which logD [4] is on record?
**A.** 6.6

**Q.** What about the Stabilty [19] of the same compound?
**A.** Unstable

**Q.** What does the source list for COc1ccc(-c2ccc(C(=O)O)cc2C)cc1-c1ccc(C(F)(F)F)nc1CN1C(=O)O[C@H](c2cc(C(F)(F)F)cc(C(F)(F)F)c2)[C@@H]1C?
**A.** logD [4]: 5.3; solubility thermodynamic [6]: 29 µM (≈ 20.7 µg/mL)

**Q.** Which Stabilty [19] does the source give for COc1cc(F)c(-c2ccc(C(=O)O)cc2C)cc1-c1ccc(C(F)(F)F)cc1[C@@H]1CC[C@H]2[C@@H](c3cc(C)cc(C(F)(F)F)c3)OC(=O)N12 here?
**A.** Unstable

**Q.** With COc1ccc(-c2ccc(C(=O)O)cc2C)cc1-c1cnc(N(C)C)nc1CN1C(=O)O[C@H](c2cc(C(F)(F)F)cc(C(F)(F)F)c2)[C@@H]1C as the compound, how does the logD [4] read?
**A.** 4.8

**Q.** And the solubility thermodynamic [6]?
**A.** 43 µM (≈ 29.6 µg/mL)

**Q.** For COc1ncc(-c2cc(-c3ccc(C(=O)O)cc3C)ccc2OC)c(CN2C(=O)O[C@H](c3cc(C(F)(F)F)cc(C(F)(F)F)c3)[C@@H]2C)n1, which logD [4] is on record?
**A.** 4.2

**Q.** What about the solubility thermodynamic [6] of the same compound?
**A.** 52 µM (≈ 35.1 µg/mL)

**Q.** What does the source list for COc1ncc(-c2ccc(C(=O)O)cc2C)cc1-c1cc(C(F)(F)F)c(OC)nc1CN1C(=O)O[C@H](c2cc(C(F)(F)F)cc(C(F)(F)F)c2)[C@@H]1C?
**A.** logD [4]: 5.7; solubility thermodynamic [6]: 5 µM (≈ 3.72 µg/mL)

**Q.** For Cc1cc(C(=O)O)ccc1-c1ccc(Cl)c(-c2ccc(C(F)(F)F)cc2CN2C(=O)O[C@H](c3cc(C(F)(F)F)cc(C(F)(F)F)c3)[C@@H]2C)c1, which AUC/dose [1] is on record?
**A.** 1.8 µM·kg·h/mg

**Q.** And the bioavailability [2]?
**A.** 43%

**Q.** What about the half-life [20] of the same compound?
**A.** 83 h

**Q.** What about the solubility [3] of the same compound?
**A.** 43 µM (≈ 30.8 µg/mL)

**Q.** And the logD [4]?
**A.** 6.2

**Q.** What about the Cmax [5] of the same compound?
**A.** 390 nM

**Q.** What about the solubility thermodynamic [6] of the same compound?
**A.** 43 µM (≈ 30.8 µg/mL)

**Q.** What about the half-life [7] of the same compound?
**A.** 62 h

**Q.** What about the clearance [8] of the same compound?
**A.** 5.6 mL/min/kg

**Q.** Which half-life at […] [21] does the source give for Cc1cc(C)c2c(c1)[C@@H](N(Cc1cc(C(F)(F)F)cc(C(F)(F)F)c1)c1nnn(C)n1)CCCN2C[C@H]1CC[C@H](C(=O)O)CC1 [EVACETRAPIB] here?
**A.** 7.1 h

**Q.** And the half-life at […] [22]?
**A.** 18 h

**Q.** What about the half-life at […] [23] of the same compound?
**A.** 1.3 h

**Q.** Which results are given for COc1ccc(-c2ccc(C(=O)O)cc2C)cc1-c1cnc(N(C)C)nc1[C@@H]1CC[C@H]2[C@@H](c3cc(C(F)(F)F)cc(C(F)(F)F)c3)OC(=O)N12?
**A.** MRT [14]: 2.8 h; AUC/dose [15]: 0.7 µM·h; clearance [16]: 33 mL/min/kg; Vd [17]: 5.6 L/kg; bioavailability [18]: 140%
